Results reported in publication PMC10800876, “Evaluation of proline-rich antimicrobial peptides as potential lead structures for novel antimycotics against Cryptococcus neoformans” (Frontiers in Microbiology, 2024).
Values after ≈ are worked out from the molar mass of the structure shown. Where two headings read alike, the source gives them in different places. Residues, ends and D or L forms follow the SMILES beside them. *: point of attachment. Orn(α-tetramethylguanidino) = CN(C)C(=N[C@@H](CCCN)C(=O)*)N(C)C

Legend:
[1] = tested on: C. neoformans strains 1841, H99, and KN99α; experiment: Broth microdilution assay (MIC); format: cell-based, Cryptococcus neoformans
[2] = tested on: C. neoformans 1841 (serotype D); experiment: microbe, parasite or virus in culture; conditions: Cryptococcus neoformans
[3] = tested on: C. neoformans KN99α (serotype A, mating type MATα); experiment: microbe, parasite or virus in culture; conditions: Cryptococcus neoformans
C. neoformans KN99α = experiment: Antifungal activity assay (CFU on SAB agar); format: cell-based, Cryptococcus neoformans; conditions: treatment 3 h, 30 °C, mean ± SD, n = 4; for cell count C. neoformans KN99α, 24 h: CFU counted after 24 h; for cell count C. neoformans KN99α, 48 h: CFU counted after 48 h
C. neoformans H99 = experiment: Antifungal activity assay (CFU on SAB agar); format: cell-based, Cryptococcus neoformans; conditions: treatment 3 h, 30 °C, mean ± SD, n = 4; for cell count C. neoformans H99, 24 h: CFU counted after 24 h; for cell count C. neoformans H99, 48 h: CFU counted after 48 h
C. neoformans 1841 = experiment: Antifungal activity assay (CFU on SAB agar); format: cell-based, Cryptococcus neoformans; conditions: treatment 3 h, 30 °C, mean ± SD, n = 4; for cell count C. neoformans 1841, 24 h: CFU counted after 24 h; for cell count C. neoformans 1841, 48 h: CFU counted after 48 h
[4] = tested on: C. neoformans H99 (serotype A); experiment: microbe, parasite or virus in culture; conditions: Cryptococcus neoformans
[5] = tested on: C. neoformans H99 (serotype A)
[6] = tested on: C. neoformans 1841 (serotype D)
[7] = tested on: C. neoformans KN99α (serotype A, mating type MATα)
[8] = Cryptococcus neoformans, read-out: MIC
[9] = 24 h, pH 7.5, read-out: MIC (μmol/L) 1841 24 h
[10] = 24 h, read-out: MIC (mg/L) 1841 24 h
[11] = 48 h, pH 7.5, read-out: MIC (μmol/L) 1841 48 h
[12] = 48 h, read-out: MIC (mg/L) 1841 48 h
[13] = 24 h, read-out: MIC (mg/L) KN99α 24 h
[14] = 24 h, read-out: MIC (μmol/L) KN99α 24 h
[15] = 48 h, read-out: MIC (mg/L) KN99α 48 h
[16] = 48 h, read-out: MIC (μmol/L) KN99α 48 h
[17] = 24 h, read-out: MIC (mg/L) H99 24 h
[18] = 24 h, read-out: MIC (μmol/L) H99 24 h
[19] = 48 h, read-out: MIC (mg/L) H99 48 h
[20] = 48 h, read-out: MIC (μmol/L) H99 48 h
[21] = broth microdilution, 50% SAB in phosphate buffer, 30°C, read after 24 h, n = 6
[22] = broth microdilution, 50% SAB in phosphate buffer, 30°C, read after 48 h, n = 6
[23] = strains 1841, H99, and KN99α, 24 h
[24] = 1841 (serotype D, 24 h, pH 7.5)
[25] = 1841 (serotype D, 48 h, pH 7.5)
[26] = KN99α (serotype A, mating type MATα, 24 h)
[27] = KN99α (serotype A, mating type MATα, 48 h)

## Nc1[nH]c(=O)ncc1F [Flucytosine, flucytosine, reference compound]
[1]
  MIC: ≥ 64 µg/mL
[1]; [8]
  MIC: ≥ 496 µM
[2]; [9]
  MIC: 496 µmol/L
[2]; [10]
  MIC: 64 mg/L
[2]; [11]
  MIC: 992 µmol/L
[2]; [12]
  MIC: 128 mg/L
[3]; [13]
  MIC: 128 mg/L
[3]; [14]
  MIC: 992 µmol/L
[3]; [15]
  MIC: > 128 mg/L
[3]; [16]
  MIC: > 992 µmol/L
C. neoformans KN99α; 0.25 µmol/L
  cell count C. neoformans KN99α, 24 h: 3.4 ± 0.7 x 10^4 CFU/mL
  cell count C. neoformans KN99α, 48 h: 3.4 ± 0.8 x 10^4 CFU/mL
C. neoformans KN99α; 2.5 µmol/L
  cell count C. neoformans KN99α, 24 h: 3.1 ± 0.5 x 10^4 CFU/mL
  cell count C. neoformans KN99α, 48 h: 3.2 ± 0.5 x 10^4 CFU/mL
C. neoformans KN99α; 25 µmol/L
  cell count C. neoformans KN99α, 24 h: 3.3 ± 0.5 x 10^4 CFU/mL
  cell count C. neoformans KN99α, 48 h: 3.3 ± 0.5 x 10^4 CFU/mL
C. neoformans H99; 0.25 µmol/L
  cell count C. neoformans H99, 24 h: 3.1 ± 0.8 x 10^4 CFU/mL
  cell count C. neoformans H99, 48 h: 3.2 ± 0.7 x 10^4 CFU/mL
C. neoformans H99; 2.5 µmol/L
  cell count C. neoformans H99, 24 h: 3.7 ± 0.4 x 10^4 CFU/mL
  cell count C. neoformans H99, 48 h: 3.9 ± 0.3 x 10^4 CFU/mL
C. neoformans H99; 25 µmol/L
  cell count C. neoformans H99, 24 h: 3.1 ± 0.5 x 10^4 CFU/mL
  cell count C. neoformans H99, 48 h: 3.3 ± 0.6 x 10^4 CFU/mL
C. neoformans 1841; 0.25 µmol/L
  cell count C. neoformans 1841, 24 h: 2.2 ± 0.1 x 10^4 CFU/mL
  cell count C. neoformans 1841, 48 h: 2.2 ± 0.1 x 10^4 CFU/mL
C. neoformans 1841; 2.5 µmol/L
  cell count C. neoformans 1841, 24 h: 2.4 ± 0.2 x 10^4 CFU/mL
  cell count C. neoformans 1841, 48 h: 2.4 ± 0.2 x 10^4 CFU/mL
C. neoformans 1841; 25 µmol/L
  cell count C. neoformans 1841, 24 h: 2.4 ± 0.0 x 10^4 CFU/mL
  cell count C. neoformans 1841, 48 h: 2.4 ± 0.0 x 10^4 CFU/mL
[4]; [17]
  MIC: 64 mg/L
[4]; [18]
  MIC: 496 µmol/L
[4]; [19]
  MIC: > 128 mg/L
[4]; [20]
  MIC: > 992 µmol/L

## OC(Cn1cncn1)(Cn1cncn1)c1ccc(F)cc1F [Fluconazole, fluconazole, reference compound]
[1]
  MIC: 4 to 32 µg/mL
[1]; [8]
  MIC: 13 to 105 µM
[2]; [9]
  MIC: 105 µmol/L
[2]; [10]
  MIC: 32 mg/L
[2]; [11]
  MIC: 105 µmol/L
[2]; [12]
  MIC: 32 mg/L
[3]; [13]
  MIC: 4 mg/L
[3]; [14]
  MIC: 13 µmol/L
[3]; [15]
  MIC: 8 mg/L
[3]; [16]
  MIC: 26 µmol/L
C. neoformans KN99α; 0.25 µmol/L
  cell count C. neoformans KN99α, 24 h: 2.9 ± 0.5 x 10^4 CFU/mL
  cell count C. neoformans KN99α, 48 h: 3.0 ± 0.6 x 10^4 CFU/mL
C. neoformans KN99α; 2.5 µmol/L
  cell count C. neoformans KN99α, 24 h: 3.3 ± 0.6 x 10^4 CFU/mL
  cell count C. neoformans KN99α, 48 h: 3.4 ± 0.7 x 10^4 CFU/mL
C. neoformans KN99α; 25 µmol/L
  cell count C. neoformans KN99α, 24 h: 3.2 ± 0.5 x 10^4 CFU/mL
  cell count C. neoformans KN99α, 48 h: 3.3 ± 0.5 x 10^4 CFU/mL
C. neoformans H99; 0.25 µmol/L
  cell count C. neoformans H99, 24 h: 3.4 ± 0.5 x 10^4 CFU/mL
  cell count C. neoformans H99, 48 h: 3.8 ± 0.3 x 10^4 CFU/mL
C. neoformans H99; 2.5 µmol/L
  cell count C. neoformans H99, 24 h: 3.4 ± 0.4 x 10^4 CFU/mL
  cell count C. neoformans H99, 48 h: 3.5 ± 0.4 x 10^4 CFU/mL
C. neoformans H99; 25 µmol/L
  cell count C. neoformans H99, 24 h: 3.3 ± 0.8 x 10^4 CFU/mL
  cell count C. neoformans H99, 48 h: 3.5 ± 0.8 x 10^4 CFU/mL
C. neoformans 1841; 0.25 µmol/L
  cell count C. neoformans 1841, 24 h: 2.5 ± 0.0 x 10^4 CFU/mL
  cell count C. neoformans 1841, 48 h: 2.5 ± 0.0 x 10^4 CFU/mL
C. neoformans 1841; 2.5 µmol/L
  cell count C. neoformans 1841, 24 h: 2.7 ± 0.2 x 10^4 CFU/mL
  cell count C. neoformans 1841, 48 h: 2.7 ± 0.2 x 10^4 CFU/mL
C. neoformans 1841; 25 µmol/L
  cell count C. neoformans 1841, 24 h: 1.9 ± 0.3 x 10^4 CFU/mL
  cell count C. neoformans 1841, 48 h: 1.9 ± 0.3 x 10^4 CFU/mL
[4]; [17]
  MIC: 16 mg/L
[4]; [18]
  MIC: 53 µmol/L
[4]; [19]
  MIC: 16 to 32 mg/L
[4]; [20]
  MIC: 53 to 105 µmol/L

## CC[C@H](C)[C@H](NC(=O)[C@@H]1CCCN1C(=O)[C@H](CCCNC(=N)N)NC(=O)[C@@H]1CCCN1C(=O)[C@@H]1CCCN1C(=O)[C@@H](NC(=O)[C@@H]1CCCN1C(=O)[C@H](CCCNC(=N)N)NC(=O)[C@@H]1CCCN1C(=O)[C@H](CC(C)C)NC(=O)[C@H](Cc1ccc(O)cc1)NC(=O)[C@H](CO)NC(=O)CNC(=O)[C@H](CCCCN)NC(=O)[C@H](CC(=O)O)NC(=O)[C@@H](N)C(C)C)[C@@H](C)O)C(=O)N[C@@H](Cc1ccc(O)cc1)C(=O)N[C@@H](CC(N)=O)C(=O)N[C@@H](CCCNC(=N)N)C(=O)N[C@@H](CC(N)=O)C(=O)O [Pyrrhocoricin, reference compound] (H-VDKGSYLPRPTPPRPIYNRN-OH)
[5]; [21]
  MIC (μmol/L) H99 24 h: >55 µmol/L
[5]; [22]
  MIC (μmol/L) H99 48 h: >55 µmol/L
[1]
  MIC: > 55 µM
[6]; broth microdilution, 50% SAB in phosphate buffer pH 7.5, 5 × 10^4 CFU/mL, 30°C, read after 24 h, mean of six replicates (n = 6)
  MIC (μmol/L) 1841 24 h: >55 µmol/L
[6]; broth microdilution, 50% SAB in phosphate buffer pH 7.5, 5 × 10^4 CFU/mL, 30°C, read after 48 h, n = 6
  MIC (μmol/L) 1841 48 h: >55 µmol/L
[7]; [21]
  MIC (μmol/L) KN99α 24 h: >55 µmol/L
[7]; [22]
  MIC (μmol/L) KN99α 48 h: >55 µmol/L

## CC[C@H](C)[C@H](NC(=O)[C@H](Cc1ccc(O)cc1)NC(=O)[C@@H](NC(=O)[C@@H]1CCCN1C(=O)[C@H](CCCNC(=N)N)NC(=O)[C@H](CC(N)=O)NC(=O)[C@H](CC(N)=O)NC(=O)CN)C(C)C)C(=O)N1CCC[C@H]1C(=O)N[C@@H](CCC(N)=O)C(=O)N1CCC[C@H]1C(=O)N[C@@H](CCCNC(=N)N)C(=O)N1CCC[C@H]1C(=O)N1CCC[C@H]1C(=O)N[C@@H](Cc1c[nH]cn1)C(=O)N1CCC[C@H]1C(=O)N[C@@H](CCCNC(=N)N)C(=O)N[C@@H](CC(C)C)C(=O)O [Apidaecin 1b, reference compound] (H-GNNRPVYIPQPRPPHPRL-OH)
[5]; H99 (serotype A, 24 h)
  MIC (μmol/L) H99 24 h: > 61 µmol/L
[5]; H99 (serotype A, 48 h)
  MIC (μmol/L) H99 48 h: > 61 µmol/L
[1]; [23]
  MIC: > 61 µM
[6]; [24]
  MIC (μmol/L) 1841 24 h: > 61 µmol/L
[6]; [25]
  MIC (μmol/L) 1841 48 h: > 61 µmol/L
[7]; [26]
  MIC (μmol/L) KN99α 24 h: > 61 µmol/L
[7]; [27]
  MIC (μmol/L) KN99α 48 h: > 61 µmol/L

## CC[C@H](C)[C@H](NC(=O)[C@H](Cc1ccc(O)cc1)NC(=O)[C@@H](NC(=O)[C@@H]1CCCN1C(=O)[C@H](CCCNC(=N)N)NC(=O)[C@H](CC(N)=O)NC(=O)[C@H](CC(N)=O)NC(=O)[C@H](CCCN)N=C(N(C)C)N(C)C)C(C)C)C(=O)N1CCC[C@H]1C(=O)N[C@@H](CCCNC(=N)N)C(=O)N1CCC[C@H]1C(=O)N[C@@H](CCCNC(=N)N)C(=O)N1CCC[C@H]1C(=O)N1CCC[C@H]1C(=O)N[C@@H](Cc1c[nH]cn1)C(=O)N1CCC[C@H]1C(=O)N[C@@H](CCCNC(=N)N)C(=O)N[C@@H](CC(C)C)C(=O)O [Api137] ({Orn(α-tetramethylguanidino)}-NNRPVYIPRPRPPHPRL-OH; N-terminus and C-terminus assumed)
[5]; H99 (serotype A, 24 h)
  MIC (μmol/L) H99 24 h: 14 µmol/L (≈ 32.1 µg/mL)
[5]; H99 (serotype A, 48 h)
  MIC (μmol/L) H99 48 h: 28 µmol/L (≈ 64.2 µg/mL)
[1]
  MIC: 32 to 64 µg/mL
[1]; [23]
  MIC: 14 to 28 µM
[6]; [24]
  MIC (μmol/L) 1841 24 h: 14 µmol/L (≈ 32.1 µg/mL)
[6]; [25]
  MIC (μmol/L) 1841 48 h: 28 µmol/L (≈ 64.2 µg/mL)
[6]; [21]
  MIC (mg/L) 1841 24 h: 32 mg/L (≈ 14 µM)
[6]; [22]
  MIC (mg/L) 1841 48 h: 64 mg/L (≈ 27.9 µM)
[7]; [26]
  MIC (mg/L) KN99α 24 h: 32 to 64 mg/L
  MIC (μmol/L) KN99α 24 h: 14 to 28 µmol/L
[7]; [27]
  MIC (mg/L) KN99α 48 h: 64 to 128 mg/L
  MIC (μmol/L) KN99α 48 h: 28 to 56 µmol/L
